# Measured values taken from US20240391936A1, “TETRAHYDROTHIENO PYRIDINE DERIVATIVES AS DDRS INHIBITORS” (CHIESI FARMACEUTICI S.P.A., priority 2021, published 2024).
# Assays:
# DDR2 = target: T1, DDR2 (Homo sapiens, UniProt Q16832); experiment: DDR2 binding assay (LanthaScreen Europium Kinase Binding assay); set-up: purchased Life Technologies; conditions: binding assay, 5 nM DDR2, 10 nM Kinase Tracer 178; Ki from IC50 by Cheng-Prusoff; read-out: Ki DDR2
# T1 sequence (Q16832 22-855): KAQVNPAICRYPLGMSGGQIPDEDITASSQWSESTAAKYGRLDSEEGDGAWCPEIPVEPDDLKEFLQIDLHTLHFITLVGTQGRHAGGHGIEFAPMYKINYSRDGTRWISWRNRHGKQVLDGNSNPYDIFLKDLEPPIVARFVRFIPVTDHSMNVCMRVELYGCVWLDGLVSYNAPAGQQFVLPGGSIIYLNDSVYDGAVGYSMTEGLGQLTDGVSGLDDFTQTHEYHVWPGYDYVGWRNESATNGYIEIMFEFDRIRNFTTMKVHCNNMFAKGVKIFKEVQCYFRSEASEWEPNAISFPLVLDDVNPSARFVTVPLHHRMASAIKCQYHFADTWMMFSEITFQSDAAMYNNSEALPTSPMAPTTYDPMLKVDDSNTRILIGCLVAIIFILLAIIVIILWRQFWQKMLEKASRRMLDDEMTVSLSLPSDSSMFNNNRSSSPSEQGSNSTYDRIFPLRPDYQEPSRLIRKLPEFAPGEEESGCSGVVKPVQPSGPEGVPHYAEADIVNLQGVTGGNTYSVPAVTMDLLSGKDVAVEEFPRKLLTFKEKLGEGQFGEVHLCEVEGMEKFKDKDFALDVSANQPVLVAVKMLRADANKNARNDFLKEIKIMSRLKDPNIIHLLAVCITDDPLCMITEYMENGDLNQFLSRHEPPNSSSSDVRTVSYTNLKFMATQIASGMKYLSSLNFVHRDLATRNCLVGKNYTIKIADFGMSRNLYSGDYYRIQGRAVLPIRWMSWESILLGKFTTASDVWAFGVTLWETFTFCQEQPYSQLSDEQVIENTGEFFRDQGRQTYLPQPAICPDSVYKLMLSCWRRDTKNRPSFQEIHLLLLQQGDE
# Summary of the method: (§1)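 Compounds incubated 1 h at room temperature with 5 nM kinase, Kinase Tracer 178 (20 nM for DDR1, 10 nM for DDR2) and 2 nM Eu-anti-GST antibody in pH 7.5 HEPES/MgCl2/EGTA/BRIJ35 buffer. TR-FRET 665/615 nm ratio read after 340 nm excitation; IC50 from 4-parameter fit, converted to Ki by Cheng-Prusoff.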
# DDR1 [1] = target: T2, DDR1 (Homo sapiens, UniProt Q08345); experiment: DDR1 binding assay (LanthaScreen Europium Kinase Binding assay); set-up: purchased Carna Biosciences; conditions: binding assay, 5 nM DDR1, 20 nM Kinase Tracer 178; Ki from IC50 by Cheng-Prusoff; read-out: Ki DDR1
# Summary of the method: as §1
# DDR1 [2] = target: T2, DDR1; experiment: DDR1 cell based assay (PathHunter U2OS DDR1 assay); set-up: host or cells: U2OS-DDR1 (PathHunter); conditions: U2OS-DDR1 cells, bovine Type II Collagen 20 μg/ml
# Summary of the method: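 U2OS-DDR1 PathHunter cells preincubated 30 min with compound, then stimulated overnight at 37 °C with 20 μg/ml bovine type II collagen. Luminescent complementation signal read after 1 h detection at room temperature; normalized to vehicle (0%) and collagen-only (100%) controls, IC50 from variable-slope sigmoidal fit.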
# T2 sequence (Q08345 19-913): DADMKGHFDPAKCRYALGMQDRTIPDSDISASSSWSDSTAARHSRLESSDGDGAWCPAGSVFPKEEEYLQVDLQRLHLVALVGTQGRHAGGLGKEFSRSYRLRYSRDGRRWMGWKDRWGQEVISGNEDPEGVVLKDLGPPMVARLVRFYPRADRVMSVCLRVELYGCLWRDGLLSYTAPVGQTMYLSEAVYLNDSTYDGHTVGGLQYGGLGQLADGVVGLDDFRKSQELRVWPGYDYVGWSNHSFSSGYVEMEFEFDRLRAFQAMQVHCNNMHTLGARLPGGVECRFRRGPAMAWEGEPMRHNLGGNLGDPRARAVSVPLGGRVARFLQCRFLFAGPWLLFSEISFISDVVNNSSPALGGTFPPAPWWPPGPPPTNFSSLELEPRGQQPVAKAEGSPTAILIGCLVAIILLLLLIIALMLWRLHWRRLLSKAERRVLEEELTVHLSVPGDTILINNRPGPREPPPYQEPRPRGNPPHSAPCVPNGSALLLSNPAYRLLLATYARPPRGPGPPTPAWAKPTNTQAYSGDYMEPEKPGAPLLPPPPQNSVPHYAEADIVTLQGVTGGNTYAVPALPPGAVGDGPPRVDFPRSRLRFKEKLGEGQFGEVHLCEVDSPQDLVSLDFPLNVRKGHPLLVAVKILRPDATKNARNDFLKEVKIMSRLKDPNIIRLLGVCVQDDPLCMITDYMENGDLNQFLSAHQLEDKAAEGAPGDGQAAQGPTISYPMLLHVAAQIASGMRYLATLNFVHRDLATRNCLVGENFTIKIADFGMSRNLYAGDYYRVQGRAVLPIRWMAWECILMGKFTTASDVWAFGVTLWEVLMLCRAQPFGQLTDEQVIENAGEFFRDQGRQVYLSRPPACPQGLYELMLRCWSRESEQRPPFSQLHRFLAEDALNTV
Ki (DDR2),Ki (DDR1 [1]),IC50 (DDR1 [2]),Compound
< 25 nM,< 25 nM,25 to 50 nM,"Cn1nc(C(C)(C)C)cc1NC(=O)c1csc2c1CCN(C(=O)c1cnc3ccc(C(F)(F)F)cn13)C2 [Example 82, N-(3-(tert-butyl)-1-methyl-1H-pyrazol-5-yl)-6-(6-(trifluoromethyl)imidazo[1,2-a]pyridine-3-carbonyl)-4,5,6,7-tetrahydrothieno[2,3-c]pyridine-3-carboxamide]"
< 25 nM,< 25 nM,25 to 50 nM,"CC(C)(C)c1cc(NC(=O)c2csc3c2CCN(C(=O)c2cnc4ccccn24)C3)n(CCO)n1 [Example 64, N-(3-(tert-butyl)-1-(2-hydroxyethyl)-1H-pyrazol-5-yl)-6-(imidazo[1,2-a]pyridine-3-carbonyl)-4,5,6,7-tetrahydrothieno[2,3-c]pyridine-3-carboxamide]"
< 25 nM,< 25 nM,25 to 50 nM,"Cn1nc(C2CCC2)cc1NC(=O)c1csc2c1CCN(C(=O)c1cnc3ccccn13)C2 [Example 35, N-(3-cyclobutyl-1-methyl-1H-pyrazol-5-yl)-6-(imidazo[1,2-a]pyridine-3-carbonyl)-4,5,6,7-tetrahydrothieno[2,3-c]pyridine-3-carboxamide]"
< 25 nM,< 25 nM,< 25 nM,"CC(C)(C)c1cc(NC(=O)c2csc3c2CCN(Cc2cnc4ccnn4c2)C3)on1 [Example 156, N-(3-(tert-butyl)isoxazol-5-yl)-6-(pyrazolo[1,5-a]pyrimidin-6-ylmethyl)-4,5,6,7-tetrahydrothieno[2,3-c]pyridine-3-carboxamide]"
< 25 nM,< 25 nM,25 to 50 nM,"CN1CCN(CCOc2cc(NC(=O)c3csc4c3CCN(C(=O)c3cnc5ccccn35)C4)cc(C(F)(F)F)c2)CC1 [Example 62, 6-(imidazo[1,2-a]pyridine-3-carbonyl)-N-(3-(2-(4-methylpiperazin-1-yl)ethoxy)-5-(trifluoromethyl)phenyl)-4,5,6,7-tetrahydrothieno[2,3-c]pyridine-3-carboxamide]"
< 25 nM,< 25 nM,25 to 50 nM,"Cn1nc(NC(=O)c2csc3c2CCN(C(=O)c2cnn4ccncc24)C3)cc1C(C)(C)C [Example 116, N-(5-(tert-butyl)-1-methyl-1H-pyrazol-3-yl)-6-(pyrazolo[1,5-a]pyrazine-3-carbonyl)-4,5,6,7-tetrahydrothieno[2,3-c]pyridine-3-carboxamide]"
< 25 nM,< 25 nM,50 to 80 nM,"CN1CCN(Cc2ccc(NC(=O)c3csc4c3CCN(C(=O)c3cnc5ccccn35)C4)cc2C(F)(F)F)CC1 [Example 18, 6-(imidazo[1,2-a]pyridine-3-carbonyl)-N-(4-((4-methylpiperazin-1-yl)methyl)-3-(trifluoromethyl)phenyl)-4,5,6,7-tetrahydrothieno[2,3-c]pyridine-3-carboxamide]"
< 25 nM,< 25 nM,25 to 50 nM,"O=C(Nc1cc(C(F)(F)F)cnn1)c1csc2c1CCN(C(=O)c1cnc3ccccn13)C2 [Example 173, 6-(imidazo[1,2-a]pyridine-3-carbonyl)-N-(5-(trifluoromethyl)pyridazin-3-yl)-4,5,6,7-tetrahydrothieno[2,3-c]pyridine-3-carboxamide]"

# Continued, compound first:
Compound,Ki (DDR2),Ki (DDR1 [1]),IC50 (DDR1 [2])
"N#Cc1cc(NC(=O)c2csc3c2CCN(C(=O)c2cnc4ccccn24)C3)cc(C(F)(F)F)c1 [Example 131, N-(3-cyano-5-(trifluoromethyl)phenyl)-6-(imidazo[1,2-a]pyridine-3-carbonyl)-4,5,6,7-tetrahydrothieno[2,3-c]pyridine-3-carboxamide]",< 25 nM,< 25 nM,25 to 50 nM
"Cn1nc(NC(=O)c2csc3c2CCN(Cc2cnc4[nH]ccc4c2)C3)cc1C(F)(F)F [Example 169, 6-((1H-pyrrolo[2,3-b]pyridin-5-yl)methyl)-N-(1-methyl-5-(trifluoromethyl)-1H-pyrazol-3-yl)-4,5,6,7-tetrahydrothieno[2,3-c]pyridine-3-carboxamide]",< 25 nM,< 25 nM,< 25 nM
"Cc1n[nH]c2ncc(CN3CCc4c(C(=O)Nc5cc(C6CC6)on5)csc4C3)cc12 [Example 148, N-(5-cyclopropylisoxazol-3-yl)-6-((3-methyl-1H-pyrazolo[3,4-b]pyridin-5-yl)methyl)-4,5,6,7-tetrahydrothieno[2,3-c]pyridine-3-carboxamide]",< 25 nM,< 25 nM,< 25 nM
"CC(=O)N1CCN(Cc2cc(NC(=O)c3csc4c3CCN(C(=O)c3cnc5ccccn35)C4)cc(C(F)(F)F)c2)CC1 [Example 58, N-(3-((4-acetylpiperazin-1-yl)methyl)-5-(trifluoromethyl)phenyl)-6-(imidazo[1,2-a]pyridine-3-carbonyl)-4,5,6,7-tetrahydrothieno[2,3-c]pyridine-3-carboxamide]",< 25 nM,< 25 nM,25 to 50 nM
"CN(C)CCOc1cc(NC(=O)c2csc3c2CCN(C(=O)c2cnc4ccccn24)C3)cc(C(F)(F)F)c1 [Example 25, N-(3-(2-(dimethylamino)ethoxy)-5-(trifluoromethyl)phenyl)-6-(imidazo[1,2-a]pyridine-3-carbonyl)-4,5,6,7-tetrahydrothieno[2,3-c]pyridine-3-carboxamide]",< 25 nM,< 25 nM,25 to 50 nM
"O=C(Nc1cccc(C(F)(F)F)c1)c1csc2c1CCN(C(=O)c1cnc3n1CCCC3)C2 [Example 95, 6-(5,6,7,8-tetrahydroimidazo[1,2-a]pyridine-3-carbonyl)-N-(3-(trifluoromethyl)phenyl)-4,5,6,7-tetrahydrothieno[2,3-c]pyridine-3-carboxamide]",< 25 nM,< 25 nM,< 25 nM
"O=C(Nc1cc(CN2CCC(F)C2)cc(C(F)(F)F)c1)c1csc2c1CCN(C(=O)c1cnc3ccccn13)C2 (stereo not drawn) [Example 51, N-(3-((3-fluoropyrrolidin-1-yl)methyl)-5-(trifluoromethyl)phenyl)-6-(imidazo[1,2-a]pyridine-3-carbonyl)-4,5,6,7-tetrahydrothieno[2,3-c]pyridine-3-carboxamide]",< 25 nM,< 25 nM,25 to 50 nM
"CN1CCN(c2ccc3ncc(C(=O)N4CCc5c(C(=O)Nc6cc(C(C)(C)C)no6)csc5C4)n3c2)CC1 [Example 168, N-(3-(tert-butyl)isoxazol-5-yl)-6-(6-(4-methylpiperazin-1-yl)imidazo[1,2-a]pyridine-3-carbonyl)-4,5,6,7-tetrahydrothieno[2,3-c]pyridine-3-carboxamide]",< 25 nM,< 25 nM,25 to 50 nM
"CN(C)C1CCN(Cc2cc(NC(=O)c3csc4c3CCN(C(=O)c3cnc5ccccn35)C4)cc(C(F)(F)F)c2)C1 (stereo not drawn) [Example 56, N-(3-((3-(dimethylamino)pyrrolidin-1-yl)methyl)-5-(trifluoromethyl)phenyl)-6-(imidazo[1,2-a]pyridine-3-carbonyl)-4,5,6,7-tetrahydrothieno[2,3-c]pyridine-3-carboxamide]",< 25 nM,< 25 nM,< 25 nM
"CC(C)Cc1cc(NC(=O)c2csc3c2CCN(C(=O)c2cnc4ccccn24)C3)n(C)n1 [Example 43, 6-(imidazo[1,2-a]pyridine-3-carbonyl)-N-(3-isobutyl-1-methyl-1H-pyrazol-5-yl)-4,5,6,7-tetrahydrothieno[2,3-c]pyridine-3-carboxamide]",< 25 nM,< 25 nM,25 to 50 nM
"Cc1n[nH]c2ncc(CN3CCc4c(C(=O)Nc5cc(OCCN6CCCC6)cc(C(F)(F)F)c5)csc4C3)cc12 [Example 163, 6-[(3-methyl-1H-pyrazolo[3,4-b]pyridin-5-yl)methyl]-N-[3-(2-pyrrolidin-1-ylethoxy)-5-(trifluoromethyl)phenyl]-5,7-dihydro-4H-thieno[2,3-c]pyridine-3-carboxamide]",< 25 nM,< 25 nM,< 25 nM
